Source: US11318208B2, “Synthetic compound” (Syntab Therapeutics GmbH, priority 2016, dated 2022)
Square brackets hold non-standard residues; d marks the D form. Ends that are not written are not given here. * marks the point of attachment. Tyr(3-NO2) = N[C@@H](Cc1ccc(O)c([N+](=O)[O-])c1)C(=O)O; Hyp = O=C(O)[C@@H]1C[C@@H](O)CN1; For = O=C*

How the values were obtained:
α3 Integrin [1] = biological target: T1, α3 Integrin (Homo sapiens, UniProt P05556+P26006); experiment: FACS analysis of cell binding, binder targeting α3 Integrin; settings: FIG. 8, 200 nM biotinylated binder, vs scrambled variant
T1 construct: endogenous in cells; host or cells: A431
T1 sequence (P26006 33-872 limits assumed): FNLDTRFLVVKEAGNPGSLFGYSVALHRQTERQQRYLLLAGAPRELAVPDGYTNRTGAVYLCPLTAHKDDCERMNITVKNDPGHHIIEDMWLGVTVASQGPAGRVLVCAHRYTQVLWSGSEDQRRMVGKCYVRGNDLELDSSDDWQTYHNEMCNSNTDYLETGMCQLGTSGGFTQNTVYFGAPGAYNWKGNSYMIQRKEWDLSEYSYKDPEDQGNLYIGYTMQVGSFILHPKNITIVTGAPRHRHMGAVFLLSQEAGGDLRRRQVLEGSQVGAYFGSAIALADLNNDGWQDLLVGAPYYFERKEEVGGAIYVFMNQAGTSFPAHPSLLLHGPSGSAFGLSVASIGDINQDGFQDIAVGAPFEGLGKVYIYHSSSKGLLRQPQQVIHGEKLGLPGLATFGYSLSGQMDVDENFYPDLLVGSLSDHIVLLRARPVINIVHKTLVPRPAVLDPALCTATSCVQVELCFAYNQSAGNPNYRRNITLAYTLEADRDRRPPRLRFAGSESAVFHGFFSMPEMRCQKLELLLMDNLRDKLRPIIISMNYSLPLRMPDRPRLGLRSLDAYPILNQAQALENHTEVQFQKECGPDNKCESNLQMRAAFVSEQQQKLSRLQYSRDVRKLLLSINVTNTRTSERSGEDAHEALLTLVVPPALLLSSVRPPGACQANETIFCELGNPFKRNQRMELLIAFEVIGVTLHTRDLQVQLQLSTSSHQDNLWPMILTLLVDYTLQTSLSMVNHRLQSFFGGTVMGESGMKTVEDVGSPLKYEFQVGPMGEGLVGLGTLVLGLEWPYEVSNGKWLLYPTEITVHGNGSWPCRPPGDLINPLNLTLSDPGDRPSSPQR
T1 sequence (P26006 873-1051 limits assumed): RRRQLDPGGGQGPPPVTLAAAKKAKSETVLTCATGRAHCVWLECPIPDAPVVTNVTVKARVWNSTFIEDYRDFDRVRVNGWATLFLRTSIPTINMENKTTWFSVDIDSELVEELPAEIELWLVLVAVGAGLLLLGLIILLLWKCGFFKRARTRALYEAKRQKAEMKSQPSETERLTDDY
T1 sequence (P05556 21-798): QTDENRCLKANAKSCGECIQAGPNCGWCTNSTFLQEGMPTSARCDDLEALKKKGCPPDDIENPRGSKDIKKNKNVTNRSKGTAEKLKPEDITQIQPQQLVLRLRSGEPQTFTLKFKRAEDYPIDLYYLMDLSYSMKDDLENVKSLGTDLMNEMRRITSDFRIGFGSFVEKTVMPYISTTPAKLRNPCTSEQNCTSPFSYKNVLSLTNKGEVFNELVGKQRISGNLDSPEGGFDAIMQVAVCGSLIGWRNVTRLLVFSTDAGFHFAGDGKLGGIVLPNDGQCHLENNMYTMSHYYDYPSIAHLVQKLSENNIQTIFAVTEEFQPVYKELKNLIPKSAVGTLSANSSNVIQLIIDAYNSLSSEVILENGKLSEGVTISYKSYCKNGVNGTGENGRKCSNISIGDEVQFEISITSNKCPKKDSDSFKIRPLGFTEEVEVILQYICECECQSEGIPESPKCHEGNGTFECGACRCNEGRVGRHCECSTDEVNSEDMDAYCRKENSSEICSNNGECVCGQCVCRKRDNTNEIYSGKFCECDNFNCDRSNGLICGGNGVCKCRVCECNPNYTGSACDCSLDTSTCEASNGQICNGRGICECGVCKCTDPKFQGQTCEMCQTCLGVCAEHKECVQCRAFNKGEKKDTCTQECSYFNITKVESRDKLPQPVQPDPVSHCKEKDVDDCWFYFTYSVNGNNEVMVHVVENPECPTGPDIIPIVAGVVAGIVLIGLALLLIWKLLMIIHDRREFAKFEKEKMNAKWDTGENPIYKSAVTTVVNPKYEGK
Method: (§1) The binding capability of peptides or peptidomimectis, of synthetic compounds according to the invention to different cell lines displaying particular targets was investigated by using flow cytometry. Detached cells were incubated with biotinylated peptide/peptidomimetic or biotinylated synthetic compound in blocking buffer for at least 30 min of ice. The cells were washed twice with washing buffer followed by incubation with streptavidin labeled with the Peridinin-chlorophyll protein PerCP-Cy5.5 (BD Biosciences) for 15 minutes on ice. After one additional wash step, samples were analyzed using FACS Canto (at least 10,000 cells per sample were counted) for cells which have bound the biotinylated reagent plus the streptavidin-PerCP-Cy5.5. Overlay histograms of cells incubated with peptide or control peptide were generated and the geometrical mean fluorescence of each sample was determined in FloJo. The EC50 measurements were calculated using Graph Prism software.
(§2) The following cell lines were used. The presence or absence of the surface antigens α3 Integrin and αvβ6 Integrin has been verified by corresponding antibody tests: […]

α3 Integrin [2] = experiment: as above; design: species or system human; settings: FIG. 8; 200 nM biotinylated binder; K 562 does not express α3 Integrin
Method: as §1, §2

αvβ6 Integrin [3] = biological target: T2, αvβ6 Integrin (Homo sapiens, UniProt P06756+P18564); experiment: FACS analysis of cell binding, binder targeting αvβ6 Integrin; settings: FIG. 9, 10 nM biotinylated binder, vs scrambled variant
T2 construct: The presence or absence of the surface antigens α3 Integrin and αvβ6 Integrin has been verified by corresponding antibody tests; endogenous in cells
T2 sequence (P06756 31-889 limits assumed): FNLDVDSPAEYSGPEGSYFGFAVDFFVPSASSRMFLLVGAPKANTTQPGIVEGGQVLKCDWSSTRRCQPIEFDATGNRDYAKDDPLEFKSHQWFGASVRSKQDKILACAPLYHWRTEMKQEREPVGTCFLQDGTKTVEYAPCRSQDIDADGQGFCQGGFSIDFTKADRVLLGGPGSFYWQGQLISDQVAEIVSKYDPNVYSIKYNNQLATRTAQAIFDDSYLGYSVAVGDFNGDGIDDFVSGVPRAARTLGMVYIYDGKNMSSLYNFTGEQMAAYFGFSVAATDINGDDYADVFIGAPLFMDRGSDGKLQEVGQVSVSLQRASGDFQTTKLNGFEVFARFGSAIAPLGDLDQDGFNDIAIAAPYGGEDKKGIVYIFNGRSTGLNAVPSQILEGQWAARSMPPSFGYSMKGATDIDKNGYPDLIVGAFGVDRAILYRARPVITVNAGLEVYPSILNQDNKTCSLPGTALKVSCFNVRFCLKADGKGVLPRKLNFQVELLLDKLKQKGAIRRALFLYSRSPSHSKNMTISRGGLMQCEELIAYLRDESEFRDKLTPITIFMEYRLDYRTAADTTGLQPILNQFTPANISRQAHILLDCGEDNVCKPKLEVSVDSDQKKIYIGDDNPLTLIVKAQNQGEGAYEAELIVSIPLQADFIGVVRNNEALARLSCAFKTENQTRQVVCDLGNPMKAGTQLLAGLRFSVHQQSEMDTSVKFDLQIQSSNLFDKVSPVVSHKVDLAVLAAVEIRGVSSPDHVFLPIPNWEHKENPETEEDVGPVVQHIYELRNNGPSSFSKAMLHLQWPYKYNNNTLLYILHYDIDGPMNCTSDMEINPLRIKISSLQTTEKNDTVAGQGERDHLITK
T2 sequence (P06756 891-1048 limits assumed): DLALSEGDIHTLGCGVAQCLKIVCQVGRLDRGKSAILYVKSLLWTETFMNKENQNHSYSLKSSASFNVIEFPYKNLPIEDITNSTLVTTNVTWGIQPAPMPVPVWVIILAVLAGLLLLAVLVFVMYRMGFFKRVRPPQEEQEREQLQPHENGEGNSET
T2 sequence (P18564 22-788): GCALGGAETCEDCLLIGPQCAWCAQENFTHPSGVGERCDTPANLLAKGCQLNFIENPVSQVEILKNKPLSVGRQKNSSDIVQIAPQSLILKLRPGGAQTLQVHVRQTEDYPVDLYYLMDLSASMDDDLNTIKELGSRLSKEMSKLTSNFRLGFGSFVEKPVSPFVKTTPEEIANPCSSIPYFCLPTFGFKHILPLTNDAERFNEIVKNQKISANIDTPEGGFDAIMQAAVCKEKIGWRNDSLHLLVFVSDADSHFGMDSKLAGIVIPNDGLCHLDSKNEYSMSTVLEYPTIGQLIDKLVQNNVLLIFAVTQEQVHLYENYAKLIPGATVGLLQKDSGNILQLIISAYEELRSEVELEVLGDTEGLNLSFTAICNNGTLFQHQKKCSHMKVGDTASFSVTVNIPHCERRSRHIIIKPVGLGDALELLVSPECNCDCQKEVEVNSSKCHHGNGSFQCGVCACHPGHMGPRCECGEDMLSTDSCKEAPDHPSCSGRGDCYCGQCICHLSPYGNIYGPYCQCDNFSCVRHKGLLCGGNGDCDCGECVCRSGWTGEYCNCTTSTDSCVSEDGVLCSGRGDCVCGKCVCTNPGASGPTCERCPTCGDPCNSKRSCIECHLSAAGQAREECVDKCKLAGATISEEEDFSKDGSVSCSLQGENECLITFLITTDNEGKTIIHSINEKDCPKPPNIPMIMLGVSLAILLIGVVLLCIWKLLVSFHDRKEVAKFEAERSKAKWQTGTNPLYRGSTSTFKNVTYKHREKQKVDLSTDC
Method: as §1, §2

αvβ6 Integrin [4] = experiment: as above; design: species or system human; settings: FIG. 9, 10 nM biotinylated binder
Method: as §1, §2

mouse leukocytes = experiment: DHR 123 oxidation assay (oxidative burst), mouse leukocytes; format: cell-based; settings: FIG. 5; in vitro in mouse leukocytes; compared with fMLF
Method: (§3) Oxidative burst in neutrophils form part of the cells host defense, and can be evoked, e.g., by the N-formyl peptide fMLP. (Kim et al, 2003). Oxidation assays are thus a useful tool to determine the potency of formyl peptides. The oxidative burst activity of neutrophils caused by incubation with effector peptides or peptidomimetics was measured by flow cytometry, quantifying the intracellular conversion of dihydrorhodamine 123 (DHR) to rhodamine. In brief, human or murine leukocytes (1.25*10^6 cells/ml) were incubated with catalase, cytochalasin B (Sigma) and DHR (Invitrogen) in Hanks' Buffered Saline Solution (HBSS, without Ca^2+, Mg^2+) with 10 mM Hepes pH 7.4, 5 mM EDTA and 0.3% BSA at 37° C. for 10 minutes followed by incubation with the different effector peptides or peptidomimetics at different concentrations for 15 minutes at 37° C. PMA was used as a positive control.
(§4) All samples were fixed in formaldehyde and kept on ice until analysis using FACS Canto (at least 20,000 cells per sample were counted). Neutrophils were identified based on forward and side scatter characteristics. Analysis of DHR fluorescence was performed by side scatter/FL2 dot plots. Percent of DHR-positive cells were identified by gating on a negative (unstimulated) control sample.

human leukocytes [5] = experiment: Chemotaxis assay; format: cell-based; settings: FIG. 4A; in vitro in human leukocytes; compared with fMLF (devoid of an Ile residue)
Method: To test for the chemotactic effect of effector peptides or peptidomimetics, human leukocytes were re-suspended in Hanks' Buffered Saline Solution (HBSS, without Ca^2+, Mg^2+) with 10 mM Hepes pH 7.4 and 0.3% BSA at 10*10^6 cells/ml. Cells were pre-warmed at 37° C. for 20 min. After adding the effector dilutions in the above buffer into wells of 24-well plates (800 μl/well), a Millicell culture plate insert with 5 μm pore size was placed in each well, followed by immediate addition of 200 μl (2 million) leukocytes. The plate was incubated at 37° C. for 45 min. The total number of leukocytes that migrated to the bottom chamber was determined using a Neubauer chamber, or the numbers of transmigrated monocytes, neutrophils and lymphocytes were determined by flow cytometry (distinguish cell populations in FCS/SSC plot).

human leukocytes [6] = experiment: DHR 123 oxidation assay (oxidative burst), human leukocytes; format: cell-based; settings: FIG. 4B; in vitro in human leukocytes; compared with fMLF
Method: as §3, §4

SEQ ID NO: 1: peptidomimetic binder cdGY(3-NO2)GHypNc targeting α3 Integrin; tested biotinylated ([dC][dD]G[Tyr(3-NO2)]G[Hyp]N[dC]; cysteine pairing not given here; also: tested biotinylated, site not given here)
binding to cell line A431 (α3 Integrin [1]; A431 expresses α3 Integrin): binds
binding to cell line PC3 (α3 Integrin [1]; PC3 expresses α3 Integrin): binds
binding to cell line U87-MG (α3 Integrin [1]; U87-MG expresses α3 Integrin): binds
binding to cell line K 562 (α3 Integrin [2]): do not bind

SEQ ID NO: 2: peptide binder RGDLATLRQL targeting αvβ6 Integrin; tested biotinylated (also: biotinylated, place not given here)
binding to cell line A431 (αvβ6 Integrin [3]; A431 expresses αvβ6 Integrin): binds
binding to cell line HT-29 (αvβ6 Integrin [3]; HT-29 expresses αvβ6 Integrin): binds
binding to cell line PC-3 (αvβ6 Integrin [4]; PC-3 does not express αvβ6 Integrin): do not bind
binding to cell line U87-MG (αvβ6 Integrin [4]; U87-MG does not express αvβ6 Integrin): do not bind

fMIFL: N-formyl methionine effector peptide fMIFL, comprises isoleucin; fM=N-formylmethionine, remaining letters L-amino acids (For-MIFL)
activation of oxidative bursts (mouse leukocytes): much better activation of oxidative bursts
chemotactic effect (human leukocytes [5]): significantly better chemotactic effect
activation of oxidative bursts (human leukocytes [6]): much better activation of oxidative bursts
